Assay results taken from US7910739B2, “Acetylcholinesterase dual inhibitors” (priority 2003, dated 2011).
Read-outs that look alike come from different tables or passages of the source.

Legend:
BuChE from human serum = target: T1, BuChE from human serum (Homo sapiens, UniProt P06276); test: Butyrylcholinesterase (BuChE) inhibition, Ellman colorimetric method; type: biochemical
T1 construct: 0.01 unit BuChE from human serum; from tissue; host or cells: human serum
Procedure: Butyrylcholinesterase (BuChE) Inhibition (from Human Serum)
BuChE inhibitory activity was evaluated at 30° C. by the colorimetric method reported by Ellman. The assay solution consisted of 0.01 unit BuChE from human serum, 0.1 M sodium phosphate buffer pH 8, 0.3 mM 5,5′-dithiobis(2-nitrobenzoic acid) (DTNB, Ellman's reagent), and 0.5 mM butyrylthiocholine iodide as the substrate of the enzymatic reaction. Enzyme activity was determined by measuring the absorbance at 405 nm during 5 minutes with a microplate reader Digiscan 340T. The tested compounds were preincubated with the enzyme for 10 minutes at 30° C. The reaction rate was calculated with, at least, triplicate measurements. The IC50 is defined as the concentration of each compound that reduces a 50% the enzymatic activity with respect to that without inhibitor.

[1] = target: T2, AChE (from bovine erythrocytes) (Bos taurus, UniProt P23795); test: biochemical; type: biochemical
T2 construct: 0.02 unit AChE (Sigma Chemical Co. from bovine erythrocytes); purchased Sigma Chemical Co; host or cells: bovine erythrocytes (natural source)
T2 sequence (P23795 other isoform, or with tags, fused parts or gaps): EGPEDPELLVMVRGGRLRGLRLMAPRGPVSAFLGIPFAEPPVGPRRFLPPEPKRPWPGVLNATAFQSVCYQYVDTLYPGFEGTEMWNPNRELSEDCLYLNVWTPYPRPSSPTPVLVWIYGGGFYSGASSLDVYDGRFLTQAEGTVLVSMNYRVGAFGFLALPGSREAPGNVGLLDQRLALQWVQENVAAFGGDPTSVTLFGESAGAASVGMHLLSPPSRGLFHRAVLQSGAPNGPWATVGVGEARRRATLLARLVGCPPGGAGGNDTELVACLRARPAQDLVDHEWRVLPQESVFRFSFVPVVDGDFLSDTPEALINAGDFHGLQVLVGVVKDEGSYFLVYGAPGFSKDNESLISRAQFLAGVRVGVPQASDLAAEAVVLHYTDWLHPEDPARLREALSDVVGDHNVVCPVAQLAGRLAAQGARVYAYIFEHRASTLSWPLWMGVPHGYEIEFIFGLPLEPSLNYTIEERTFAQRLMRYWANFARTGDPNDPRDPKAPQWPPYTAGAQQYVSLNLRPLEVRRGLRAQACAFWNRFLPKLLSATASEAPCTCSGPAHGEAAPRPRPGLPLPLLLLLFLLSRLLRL
Procedure: Acetylcholinesterase (AChE) Inhibition (from Bovine Erythrocytes)
AChE inhibitory activity was evaluated at 30° C. by the colorimetric method reported by Ellman [Ellman, G. L.; Courtney, K. D.; Andres, B.; Featherstone, R. M. Biochem. Pharmacol. 1961, 7, 88-95]. The assay solution consisted of 0.1 M phosphate buffer pH 8, 0.3 mM 5,5′-dithiobis(2-nitrobenzoic acid) (DTNB, Ellman's reagent), 0.02 unit AChE (Sigma Chemical Co. from bovine erythrocytes), and 0.5 mM acetylthiocholine iodide as the substrate of the enzymatic reaction. The compounds tested were added to the assay solution and pre incubated with the enzyme for 5 min at 30° C. After that period, the substrate was added. […] The compound concentration producing 50% of AChE inhibition (IC50) was determined.

AChE peripheral site = AChE peripheral site (Bos taurus, UniProt P23795); test: Propidium competition (fluorescence); type: binding; conditions: 10 μM AchE, 20 μM propidium iodide, pH 8.0
Sequence of AChE peripheral site (P23795 other isoform, or with tags, fused parts or gaps): as above
Procedure: Fluorescence was measured in a Fluostar optima plate reader (BMG). Measurements were carried out in 100 μl solution volume, in 96-well plates. The buffer used wad 1 mM Tris/HCl, pH 8.0. 10 μM AchE was incubated, at least 6 hours, with the molecules at different concentrations. 20 μM propidium iodide was added 10 min before fluorescence measurement. The excitation wavelength was 485 nm, and that of emission, 620 nm.

[2] = test system: human neuroblastoma cell line SH-SY5Y; test: Toxicity measurement (LDH release); type: cell-based; conditions: 24 hours exposure
Procedure: The cytotoxicity effect of the molecules was tested in the human neuroblastoma cell line SH-SY5Y. These cells were cultured in 96-well plates in DULBECCO'S MOD EAGLE medium, supplemented with 10% fetal bovine serum and 1% penicillin/streptomycin, and grown in a 5% CO2 humidified incubator at 37° C.
The cells were plated at 10^4 cells for each well, at least, 48 hours before the toxicity measure. Cells were exposed for 24 hours to the compounds at different concentrations (from 10^−5 to 10^−9), quantitative assessment of cell death was made by measurement of the intracellular enzyme lactate dehydrogenase (LDH) (citotoxicity detection kit, Roche). The quantity of LDH was evaluated in a microplate reader Anthos 2010, at 492 and 620 nm. Controls were taken as 100% viability.

[3] = target: T3, β-amyloid-huAChE aggregation complex (Homo sapiens, UniProt P22303); test: Inhibition of β-amyloid aggregation (Congo Red binding); type: biochemical; conditions: Aβ1-40 0.1 mM, Aβ:huAChE 200:1, 48 hours
T3 construct: purchased Sigma-Aldrich (huAChE); rPeptide (Aβ1-40)
T3 sequence (P22303 32-614, one chain of several): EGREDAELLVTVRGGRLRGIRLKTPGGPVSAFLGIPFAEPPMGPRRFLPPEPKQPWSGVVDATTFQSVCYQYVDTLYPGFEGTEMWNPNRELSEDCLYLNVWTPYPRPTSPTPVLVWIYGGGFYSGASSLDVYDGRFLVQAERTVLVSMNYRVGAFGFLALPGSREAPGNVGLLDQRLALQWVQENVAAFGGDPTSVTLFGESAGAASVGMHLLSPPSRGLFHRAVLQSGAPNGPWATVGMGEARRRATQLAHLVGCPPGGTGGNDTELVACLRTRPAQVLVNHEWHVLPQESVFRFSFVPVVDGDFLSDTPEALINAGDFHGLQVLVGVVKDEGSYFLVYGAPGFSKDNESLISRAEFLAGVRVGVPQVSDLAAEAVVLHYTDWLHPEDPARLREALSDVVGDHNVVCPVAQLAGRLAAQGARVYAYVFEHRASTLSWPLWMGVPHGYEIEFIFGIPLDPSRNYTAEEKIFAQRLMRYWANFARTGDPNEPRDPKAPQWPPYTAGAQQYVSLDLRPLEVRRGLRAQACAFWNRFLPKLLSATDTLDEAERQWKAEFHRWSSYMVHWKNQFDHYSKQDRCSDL
Procedure: Inhibition of β-Amyloid Aggregation
The generation of AChE-Aβ complexes were carried out as described previously [Alvarez, A et al. J. Neurosci., 1998, 18, 3213-3223; Muñoz, F. J.; Inestrosa, N. C. FEBS Let., 1999, 450, 205-209]. Stock solutions of Aβ1-40 (rPeptide, Georgia USA) at 3.5 mM were dissolved in PBS (pH 7.4) after HFIP treatment to obtain monomeric starting material, according to manufacture's recommendations. For co-incubation experiments, 0.1 mM of peptide was mixed with human recombinant acetylcholinesterase (huAchE, Sigma-Aldrich), in the same buffer at molar ratio Aβ:huAChE 200:1, and stirred for 48 hours in a microtiter plate at room temperature. The fibrils obtained were characterized by Congo Red (CR) binding.
For the inhibition of β-amyloid aggregation, the compounds tested were used at the IC50 defined in the previous paragraph of the biological evaluation, 50 μM propidium iodide was used as reference [Inestrosa, N. C et al., J. Neuron, 1996, 16, 881-891].
To quantify the amount of fibrils aggregated, the binding to CR was done as described [Klunk, W E.; Pettegrew, J W.; Abraham, D J. J. Hystochem Cytochem., 1989, 8, 1293-1297]. Briefly, 5.5 μl aliquot of the aggregation mixture was added to 132 μl of a 25 μM CR solution (100 mM phosphate buffer pH 7.4, 150 mM NaCl), and incubated for 30 minutes at room temperature. Absorbance was measured at 480 and 540 nm and the molarity of aggregates calculated by CR(M)=(A540/25295)−(A480/46306).

[4] = BuChE from human serum, 30° C., pH 8, read-out: IC50 BuChE
[5] = AChE from bovine erythrocytes, 30° C., pH 8, read-out: IC50 AChE

T1 sequence (P06276 29-602): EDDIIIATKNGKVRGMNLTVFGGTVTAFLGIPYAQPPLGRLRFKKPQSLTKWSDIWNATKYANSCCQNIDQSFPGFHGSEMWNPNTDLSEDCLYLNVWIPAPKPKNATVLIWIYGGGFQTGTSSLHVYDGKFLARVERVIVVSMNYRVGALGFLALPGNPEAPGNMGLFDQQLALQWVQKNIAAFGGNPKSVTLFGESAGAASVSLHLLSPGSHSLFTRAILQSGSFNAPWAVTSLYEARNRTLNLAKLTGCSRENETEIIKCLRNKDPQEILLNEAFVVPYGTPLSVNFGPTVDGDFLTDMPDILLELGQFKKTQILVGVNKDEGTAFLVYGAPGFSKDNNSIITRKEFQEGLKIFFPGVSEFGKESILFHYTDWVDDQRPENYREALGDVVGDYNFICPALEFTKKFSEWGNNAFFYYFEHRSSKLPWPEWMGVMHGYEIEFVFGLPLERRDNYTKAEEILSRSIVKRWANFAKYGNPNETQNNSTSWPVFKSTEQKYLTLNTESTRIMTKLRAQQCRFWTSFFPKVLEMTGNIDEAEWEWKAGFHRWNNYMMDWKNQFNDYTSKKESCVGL

SMILES | IC50 (BuChE from human serum; [4]) | IC50 [1, 5] | Propidium competition (AChE peripheral site) | Toxicity [2] | IC50 (BuChE from human serum) | reduction in the β-amyloid-huAChE aggregation complex ([3]; 50 μM propidium iodide as reference) | reduction in the β-amyloid-huAChE aggregation complex ([3]; compound used at its IC50) | IC50 [1]
O=C(CCc1c[nH]c2ccccc12)NCCCCCCCCCCNc1c2c(nc3cc(Cl)ccc13)CCCC2 [Compound 7, N-[10-(6-Chloro-1,2,3,4-tetrahydro-acridin-9-ylamino)-decyl]-3-(1H-indol-3-yl)-propionamide] | 54 nM | 21.9 nM | 10 µM | >100 µM | – | – | – | –
O=C(NCCCCCCNc1c2c(nc3cc(Cl)ccc13)CCCC2)OCCc1c[nH]c2ccccc12 [Compound 24, [6-(6-Chloro-1,2,3,4-tetrahydro-acridin-9-ylamino)-hexyl]-carbamic Acid 2-(1h-indol-3-yl)ethyl Ester] | – | 0.7 nM | 100 µM | >10 µM | 3.2 nM | – | – | –
O=C(NCCCCCCCCNc1c2c(nc3cc(Cl)ccc13)CCCC2)c1c[nH]c2ccccc12 [Compound 13, 1H-Indole-3-carboxylic acid [8-(6-chloro-1,2,3,4-tetrahydro-acridin-9-ylamino)octyl]-amide] | 22.4 nM | 46 nM | 10 µM | >10 µM | – | – | – | –
CC[N+](C)(CC)CCC[n+]1c(-c2ccccc2)c2cc(N)ccc2c2ccc(N)cc21 [propidium iodide, reference compound] | – | – | – | – | – | 10% | – | –
O=C(NCCCCCCNc1c2c(nc3cc(Cl)ccc13)CCCC2)c1c[nH]c2ccccc12 [Compound 11, 1H-Indole-3-carboxylic acid [6-(6-chloro-1,2,3,4-tetrahydro-acridin-9-ylamino)-hexyl]-amide] | 1.7 nM | 33 nM | 100 µM | >10 µM | – | – | – | –
Clc1ccc2c(NCCc3c[nH]c4ccccc34)c3c(nc2c1)CCCC3 [Comparative Example, N-[2-3(Indolyl)ethyl]-6-chlorotacrine, reference compound] | – | 537 nM | – | – | – | – | – | –
O=C(CCc1c[nH]c2ccccc12)NCCCCCCCNc1c2c(nc3cc(Cl)ccc13)CCCC2 [Compound 4, N-[7-(6-Chloro-1,2,3,4-tetrahydro-acridin-9-ylamino)-heptyl]-3-(1H-indol-3-yl)-propionamide] | 0.1 nM | 0.06 nM | 10 µM | 10 µM | – | – | – | –
O=C(CCc1c[nH]c2ccccc12)NCCCCCCNc1c2c(nc3cc(Cl)ccc13)CCCC2 [Compound 3] | 2.9 nM | 0.02 nM | 1000 µM | 100 µM | – | – | 15% | –
O=C(NCCCCCCCNc1c2c(nc3cc(Cl)ccc13)CCCC2)c1n[nH]c2ccccc12 [Compound 21, 1H-Indazole-3-carboxylic acid [7-(6-chloro-1,2,3,4-tetrahydroacridin-9-ylamino)heptyl]-amide] | 79 nM | 95 nM | 100 µM | >10 µM | – | – | – | –
O=C(CCc1c[nH]c2ccccc12)NCCCCCNc1c2c(nc3ccccc13)CCCC2 [Compound 2, 3-(1H-Indol-3-yl)-N-[5-(1,2,3,4-tetrahydro-acridin-9-ylamino)-pentyl]-propionamide] | 1 nM | 70 nM | 10 µM | >100 µM | – | – | – | –
O=C(Cc1c[nH]c2ccc(Br)cc12)NCCCCCCCNc1c2c(nc3cc(Cl)ccc13)CCCC2 [Compound 18, 2-(5-Bromo-1H-indol-3-yl)-N-[7-(6-chloro-1,2,3,4-tetrahydro-acridin-9-ylamino)-heptyl]-acetamide] | 1.7 nM | – | 100 µM | >10 µM | – | – | – | 0.63 nM
CN(CCCNC(=O)CCc1c[nH]c2ccccc12)CCCNc1c2c(nc3cc(Cl)ccc13)CCCC2 [Compound 9, N-(3-{[3-(6-chloro-1,2,3,4-tetrahydro-acridin-9-ylamino)-propyl]-methyl-amino}-propyl)-3-(1H-indol-3-yl)-propionamide] | 7.57 nM | 2.88 nM | 10 µM | >100 µM | – | – | – | –
CN(CCCNC(=O)CCc1c[nH]c2ccccc12)CCCNc1c2c(nc3ccccc13)CCCC2 [Compound 8, N-(3-{[3-(1,2,3,4-tetrahydro-acridin-9-ylamino)-propyl]-methyl-amino}-propyl)-3-(1H-indol-3-yl)propionamide] | 0.03 nM | 147 nM | 1000 µM | >100 µM | – | – | 17% | –
O=C(CCc1c[nH]c2ccccc12)NCCCCCCCCNc1c2c(nc3cc(Cl)ccc13)CCCC2 [Compound 5, N-[8-(6-Chloro-1,2,3,4-tetrahydro-acridin-9-ylamino)-octyl]-3-(1H-indol-3-yl)propionamide] | 5.7 nM | 0.5 nM | 10 µM | 10 µM | – | – | – | –
O=C(CCc1c[nH]c2ccccc12)NCCCCCCCCCNc1c2c(nc3cc(Cl)ccc13)CCCC2 [Compound 6, N-[9-(6-Chloro-1,2,3,4-tetrahydro-acridin-9-ylamino)-nonyl]-3-(1H-indol-3-yl)-propionamide] | 9.6 nM | – | >100 µM | >100 µM | – | – | – | –
O=C(CCCc1c[nH]c2ccccc12)NCCCCCCNc1c2c(nc3cc(Cl)ccc13)CCCC2 [Compound 16, N-[6-(6-Chloro-1,2,3,4-tetrahydro-acridin-9-ylamino)-hexyl]4-(1H-Indol-3-yl)-butyramide] | 5.6 nM | 0.48 nM | 100 µM | >10 µM | – | – | – | –
O=C(NCCCCCCCNc1c2c(nc3cc(Cl)ccc13)CCCC2)c1c[nH]c2ccccc12 [Compound 12, 1H-Indole-3-carboxylic acid [7-(6-chloro-1,2,3,4-tetrahydro-acridin-9-ylamino)-heptyl]-amide] | 19 nM | 36 nM | 100 µM | >10 µM | – | – | – | –
O=C(NCCCCCNc1c2c(nc3cc(Cl)ccc13)CCCC2)c1c[nH]c2ccccc12 [Compound 10, 1H-Indole-3-carboxylic acid [5-(6-chloro-1,2,3,4-tetrahydro-acridin-9-ylamino)-pentyl]-amide] | 9.5 nM | 180 nM | 100 µM | >10 µM | – | – | – | –
